Among the data in ChEMBL document CHEMBL1140520, “Synthesis and biological evaluation of substituted 6-alkynyl-4-anilinoquinazoline derivatives as potent EGFR inhibitors” (Bioorg Med Chem Lett, 2007) are IC50 values, retold here.

The target in the assay is Epidermal growth factor receptor (Homo sapiens, UniProt P00533).
Chain of Epidermal growth factor receptor (P00533 whole entry): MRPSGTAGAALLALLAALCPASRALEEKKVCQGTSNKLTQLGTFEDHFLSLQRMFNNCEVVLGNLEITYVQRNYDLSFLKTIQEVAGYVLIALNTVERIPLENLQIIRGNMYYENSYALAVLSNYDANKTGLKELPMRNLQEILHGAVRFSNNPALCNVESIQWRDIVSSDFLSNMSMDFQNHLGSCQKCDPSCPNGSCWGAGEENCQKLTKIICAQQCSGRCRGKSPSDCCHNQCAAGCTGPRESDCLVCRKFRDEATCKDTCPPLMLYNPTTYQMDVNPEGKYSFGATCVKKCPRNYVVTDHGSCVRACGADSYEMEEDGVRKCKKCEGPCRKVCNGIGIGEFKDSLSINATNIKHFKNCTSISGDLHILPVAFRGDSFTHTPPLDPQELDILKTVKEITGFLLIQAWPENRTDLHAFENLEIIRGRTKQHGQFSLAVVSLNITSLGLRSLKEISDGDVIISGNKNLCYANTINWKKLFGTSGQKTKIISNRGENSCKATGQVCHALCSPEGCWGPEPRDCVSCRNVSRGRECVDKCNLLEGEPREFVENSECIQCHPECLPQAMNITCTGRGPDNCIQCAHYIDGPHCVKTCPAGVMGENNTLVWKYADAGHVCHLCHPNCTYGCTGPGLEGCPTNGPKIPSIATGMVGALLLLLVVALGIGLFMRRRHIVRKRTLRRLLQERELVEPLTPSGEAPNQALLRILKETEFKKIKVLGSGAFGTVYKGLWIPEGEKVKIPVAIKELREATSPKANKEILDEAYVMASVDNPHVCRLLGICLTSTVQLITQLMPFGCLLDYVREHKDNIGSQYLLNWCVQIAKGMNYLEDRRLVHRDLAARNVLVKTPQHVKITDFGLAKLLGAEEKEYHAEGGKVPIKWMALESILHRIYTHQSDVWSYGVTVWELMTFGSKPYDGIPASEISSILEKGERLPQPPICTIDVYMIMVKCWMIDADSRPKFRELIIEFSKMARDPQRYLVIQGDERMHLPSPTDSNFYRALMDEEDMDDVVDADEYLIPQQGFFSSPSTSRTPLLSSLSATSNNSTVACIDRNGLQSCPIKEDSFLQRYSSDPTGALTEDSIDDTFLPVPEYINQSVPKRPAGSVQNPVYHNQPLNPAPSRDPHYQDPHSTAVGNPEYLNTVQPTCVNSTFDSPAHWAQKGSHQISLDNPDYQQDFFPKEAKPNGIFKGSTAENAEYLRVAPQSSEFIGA

One may read the IC50 as the point on the concentration scale where inhibition reaches its midpoint. Higher therefore signals weaker potency. Take `COc1cc2ncnc(Nc3cccc(C#CCCO)c3)c2cc1OC`: the IC50 was found to be 402 nM. Then `COc1cc2ncnc(Nc3cccc(C#CC(C)(C)O)c3)c2cc1OC`, with 206 nM; and `C#Cc1ccc2ncnc(Nc3ccc(F)c(Cl)c3)c2c1`, with 127 nM. Then `Fc1ccc(Nc2ncnc3ccc(C#Cc4ccccc4)cc23)cc1Cl`, with 331 nM. Regarding `OCC#Cc1ccc2ncnc(Nc3ccc(F)c(Cl)c3)c2c1`, the IC50 amounted to 14.1 nM. In turn, `OCCC#Cc1ccc2ncnc(Nc3ccc(F)c(Cl)c3)c2c1` gave an IC50 of 186 nM.

On to `OCCCC#Cc1ccc2ncnc(Nc3ccc(F)c(Cl)c3)c2c1`, for which the IC50 worked out at 114 nM.

Molecule `CC(C)(O)C#Cc1ccc2ncnc(Nc3ccc(F)c(Cl)c3)c2c1` registered a half-inhibitory concentration (IC50) of 152 nM.

`Fc1ccc(Nc2ncnc3ccc(C#CCN4CCOCC4)cc23)cc1Cl` returned an IC50 of 50.3 nM. Then `Fc1ccc(Nc2ncnc3ccc(C#CCN4CCCCC4)cc23)cc1Cl`, with 88.7 nM; and `C#Cc1cccc(Nc2ncnc3cc(OC)c(OC)cc23)c1`, with 28.8 nM; and `COc1cc2ncnc(Nc3cccc(C#Cc4ccccc4)c3)c2cc1OC`, with 921 nM. In the case of `COc1cc2ncnc(Nc3cccc(C#CCO)c3)c2cc1OC`, 1640 nM corresponded to half-maximal inhibition (IC50).

`COc1cc2ncnc(Nc3cccc(C#CCCCO)c3)c2cc1OC` displayed an IC50 of 1360 nM.
